Data set [1] has as its system DU 145 (Prostate) cancer cells. As to the kind of experiment: Colorimetric MTT conversion assay, DU 145. The format is cell-based. The note with it: Homo sapiens, 72 h exposure, 10 μM to 100 μM. As to the method: (§1) The anticancer potential of the novel Quercetin derivatives of formula (I) were evaluated and subsequently compared with Quercetin (II). The anticancer potential was determined by the colorimetric MTT conversion assay of Mossman. Human cancer cells representing ovary (PA-1; SK-OV-3); prostate (DU 145); lung (A-549) and normal fibroblast (NIH-3T3) were separately seeded at density of 1000 cells/well into 96 well plates in 180 μl of culture medium with 10% fetal calf serum. After 24 h, cells were incubated with different concentrations of the novel Quercetin derivatives ranging from 10 μM to 100 μM with relevant controls at 37° C. in a CO2 incubator in triplicate wells. The exposure medium (Quercetin derivatives in culture medium) of all the cells was refreshed after every 24 h. Cells were incubated with the derivatives for total of 72 h. The assay was terminated by the addition of 20 μl, of MTT solution (5 mg/ml) in each well and percentage cytotoxicity was calculated as given below. The IC50 values were determined by nonlinear regression using Prism software v 4.01.
(§2) Percentage Cytotoxicity=100×[1−(X/R1)], where X=absorbance of treated sample at 540 nm

For data set [2], the system named is SKOV3 (Ovary) cancer cells. As to the kind of experiment: Colorimetric MTT conversion assay, SKOV3. It is filed as cell-based. The note with it: Homo sapiens, SK-OV-3, 72 h exposure, 10 μM to 100 μM. As to the method: as §1, §2
The test system of data set [3] is NIH 3T3 (Normal) fibroblast. As to the kind of experiment: Colorimetric MTT conversion assay, NIH 3T3. The format is cell-based. Particulars: Mus musculus, NIH3T3, 72 h exposure, 10 μM to 100 μM. The method, then: as §1, §2
Data set [4] deals with PA-1 (Ovary) cancer cells. As to the kind of experiment: Colorimetric MTT conversion assay, PA-1. It is filed as cell-based. Particulars: Homo sapiens, 72 h exposure, 10 μM to 100 μM. The method, then:
as §1, §2

Data set [5] is described as follows: Aqueous solubility by UV spectrophotometry (500 μM solutions in aqueous media from DMSO stock). The format is physicochemical. The note with it: for solubility: kinetic from dmso stock, aqueous media, 500 μM solution prepared from DMSO stock, UV OD at λmax; for Aqueous solubility compared with Quercetin (II) / QC-12 (IV), in words: comparison drawn from Table-II. The method, then:
The aqueous solubility of the novel Quercetin derivatives of formula (I) were determined and subsequently compared with QC 12. 500 μM solutions of the various novel Quercetin derivatives were prepared in aqueous media from DMSO stock solution. The samples were scanned in UV spectrophotometer at its λmax to obtain optical density (O.D) of the compound. Concentration against the OD value was obtained by calibration curve constructed by plotting the Optical density Vs concentration of calibration standards of the compounds.
Calibration standards were prepared by diluting the stock solution of the compound further in suitable solvents ensuring the overall compound solubility. Calibration standard of concentration 500 μM, 200 μM, 50 μM, 12.5 μM and 3.13 μM were prepared. These calibration standards were scanned in UV spectrophotometer at its highest wavelength (λmax) to obtain the optical density values (OD). A standard curve was constructed by plotting the Optical density Vs concentration.

Data set [6] has as its system different Cancer Cell Lines. The data set is described as follows: Colorimetric MTT conversion assay, overall comparison over the cell line panel. The format is cell-based, Human. Particulars: comparison drawn from Table-IV. The method, then:
as §1, §2

Data set [7] in a line: Plasma stability (half-life in plasma, 100 μM, 37° C., liquid chromatography). The format is in vitro ADME. The note with it: plasma spiked at 100 μM, incubated at 37° C. As to the method:
The Plasma stability of the novel Quercetin derivatives of formula (I) were evaluated by determining their half-life in plasma and subsequently compared with QC-12 (IV). Plasma samples of concentration 100 μM spiked with the compounds were incubated at 37° C. and at specified time point the samples were quenched using chilled acetonitrile. Samples were then analyzed using liquid chromatography to determine the concentration at respective time point. Half-life was calculated from the logarithmic curve drawn between time and concentration.

Data set [8] concerns A 549 (Lung) cancer cells. As to the kind of experiment: Colorimetric MTT conversion assay, A 549. The format is cell-based. The note with it: Homo sapiens, A549, 72 h exposure, 10 μM to 100 μM. The method, then:
as §1, §2

Values after ≈ are worked out from the molar mass of the structure shown.

`CC(C)(C)C(=O)OCOc1cc(-c2oc3cc(OCc4ccccc4)cc(O)c3c(=O)c2OCc2ccccc2)ccc1OCc1ccccc1` [Compound No. 1, (2-(Benzyloxy)-5-(3,7-bis(benzyloxy)-5-hydroxy-4-oxo-4H-chromen-2-yl)phenoxy)methyl pivalate]: the IC50 in data set [1], in data set [2], in data set [3] and in data set [4] was > 100 µM throughout. Besides, the concentration in solution in data set [5] (solubility) came to 1.48 µM (≈ 1.02 µg/mL).

For the molecule `CC(=O)OCOc1cc(-c2oc3cc(OCc4ccccc4)cc(O)c3c(=O)c2OCc2ccccc2)ccc1OCc1ccccc1` [Compound No. 2, (2-(Benzyloxy)-5-(3,7-bis(benzyloxy)-5-hydroxy-4-oxo-4H-chromen-2-yl)phenoxy)methyl acetate], the IC50 in data set [1], in data set [2], in data set [3] and in data set [4] was > 100 µM each time. The same molecule returned a solubility in data set [5] of 0.591 µM.

With `CC(C)(C)C(=O)OCOc1cc(-c2oc3cc(O)cc(O)c3c(=O)c2O)ccc1O` [Compound No. 7, (2-hydroxy-5-(3,5,7-trihydroxy-4-oxo-4H-chromen-2-yl)phenoxy)methyl pivalate], the IC50 in data set [1] was 83.1 µM; in data set [2], > 100 µM; in data set [3] it was > 100 µM; in data set [4] it was 20.9 µM. Further, the “Cytotoxic potential compared with Quercetin (II), in words” value in data set [6] is on record as “better cytotoxic potential than Quercetin (II)”. Moreover, the half-life at 100 μM in data set [7] amounted to 6.24 min. Besides, the “Aqueous solubility compared with Quercetin (II) / QC-12 (IV), in words” value in data set [5] is recorded as “better solubility than Quercetin (II)”. In data set [5], this molecule yielded a solubility of 30.6 µM (≈ 12.7 µg/mL).

On to `CC(=O)OCOc1cc(-c2oc3cc(O)cc(O)c3c(=O)c2O)ccc1O` [Compound No. 8, (2-hydroxy-5-(3,5,7-trihydroxy-4-oxo-4H-chromen-2-yl)phenoxy)methyl acetate], for which the IC50 in data set [1] is > 100 µM; in data set [2] it was > 100 µM; in data set [3] it was > 100 µM; in data set [4], 19.4 µM. Also, the “Cytotoxic potential compared with Quercetin (II), in words” value in data set [6] was “better cytotoxic potential than Quercetin (II)”. The half-life at 100 μM in data set [7] is < 3 min. Moreover, the “Aqueous solubility compared with Quercetin (II) / QC-12 (IV), in words” value in data set [5] is “better solubility than Quercetin (II)”. In data set [5], this molecule registered a solubility of 16.5 µM.

`CCCC(=O)OCOc1cc(-c2oc3cc(OCc4ccccc4)cc(O)c3c(=O)c2OCc2ccccc2)ccc1OCc1ccccc1` [Compound No. 13, (2-(Benzyloxy)-5-(3,7-bis(benzyloxy)-5-hydroxy-4-oxo-4H-chromen-2-yl)phenoxy)methyl butyrate]: the IC50 in data set [1], in data set [2], in data set [3], in data set [4] and in data set [8] was > 100 µM throughout. In addition, the solubility in data set [5] is < 3.13 µM.

Consider `CCCC(=O)OCOc1cc(-c2oc3cc(O)cc(O)c3c(=O)c2O)ccc1O` [Compound No. 14, (2-hydroxy-5-(3,5,7-trihydroxy-4-oxo-4H-chromen-2-yl)phenoxy)methyl butyrate], for which the IC50 was > 100 µM in data set [1]; 94.6 µM in data set [2]; > 100 µM in data set [3]; < 10 µM in data set [4]; 61.9 µM in data set [8]. For the same molecule, the “Cytotoxic potential compared with Quercetin (II), in words” value in data set [6] was “better cytotoxic potential than Quercetin (II)”. The half-life at 100 μM in data set [7] was < 3 min. For the same molecule, the “Aqueous solubility compared with Quercetin (II) / QC-12 (IV), in words” value in data set [5] is reported as “solubility comparable to QC-12 (IV)”. In data set [5], this molecule yielded a solubility of 199 µM (≈ 80.1 µg/mL).

Take `O=C(O)CNC(=O)Oc1cc(-c2oc3cc(O)cc(O)c3c(=O)c2O)ccc1O` [QC-12 (IV), reference compound]: in data set [7], the half-life at 100 μM was determined as 43.9 min. Further, in data set [5], the solubility is > 200 µM.

With `O=c1c(O)c(-c2ccc(O)c(O)c2)oc2cc(O)cc(O)c12` [Quercetin (II), 2-(3,4-Dihydroxyphenyl)-3,5,7-trihydroxy-4H-1-benzopyran-4-one, reference compound], the IC50 is > 100 µM in data set [1]; 88.4 µM in data set [2]; 68.7 µM in data set [3]; 35.3 µM in data set [4]; 83.7 µM in data set [8]. The concentration in solution in data set [5] (solubility) was 4.02 µM (≈ 1.22 µg/mL).
